Experiments:
mPTP-active Daoy cell = experiment: Cell viability (Promega CellTiter-Glo), mPTP-active Daoy cell; assay type: cell-based; conditions: Homo sapiens, Daoy cell transfected with empty virus vector
mPTP-inactive Daoy cell = experiment: Cell viability (Promega CellTiter-Glo), mPTP-inactive Daoy cell; assay type: cell-based; conditions: Homo sapiens, Daoy cell transfected with PPIF shRNA vector
Con-NCI-H82 cell = experiment: Cell viability (Promega CellTiter-Glo), Con-NCI-H82 cell; assay type: cell-based; conditions: Homo sapiens, NCI-H82 cell transfected with empty virus vector
Text: (§1) The expression of NNMT protein in NCI-H82 cell was overexpressed by inserting the NNMT gene into NCI-H82 cell using a viral vector, and the NNMT protein-overexpressing NCI-H82 cell (ov-NNMT NCI-H82 cell) was obtained. The expression of DNMT1 in NCI-H82 cell was knocked down by transfecting shRNA (the nucleotide sequence of shRNA was […] (SEQ ID No: 3)) using a viral vector, and the NCI-H82 cell with low expression of DNMT1 protein (sh-DNMT1 NCI-H82 cell) was obtained. The control NCI-H82 cell (Con-NCI-H82 cell) was obtained by transfecting NCI-H82 cell with empty virus vector without carrying NNMT gene and shRNA. The expressing content of NNMT protein and DNMT1 protein in the Con-NCI-H82 cell, the expressing content of NNMT protein in the ov-NNMT NCI-H82 cell, and the expressing content of DNMT1 protein in the sh-DNMT1 NCI-H82 cell were detected using Western Blot assay (as shown in FIG. 3 and FIG. 4), it could be seen from FIG. 3 and FIG. 4 that the NNMT protein was overexpressed in the ov-NNMT NCI-H82 cell and the expression of DNMT1 protein was knocked down (i.e, low expression) in the sh-DNMT1 NCI-H82 cell compared with the expression level of NNMT protein and DNMT1 protein in the Con-NCI-H82 cell.

ov-NNMT NCI-H82 cell = experiment: Cell viability (Promega CellTiter-Glo), ov-NNMT NCI-H82 cell; assay type: cell-based; conditions: Homo sapiens, NCI-H82 cell overexpressing NNMT protein
Text: as §1

sh-DNMT1 NCI-H82 cell = experiment: Cell viability (Promega CellTiter-Glo), sh-DNMT1 NCI-H82 cell; assay type: cell-based; conditions: Homo sapiens, NCI-H82 cell with DNMT1 knocked down
Text: as §1

Daoy cell = experiment: Mitochondria membrane potential difference by TMRM in Daoy cell (mPTP activity); assay type: cell-based, human; conditions: H2O2 +, CsA −
Text: For cells with active mitochondria permeability transition pore, adding peroxide (such as H2O2) could increase the activity of mitochondria permeability transition pore, resulting in a decrease in mitochondria membrane potential.

[1] = system: Daoy cell transfected with empty virus vector without carrying shRNA; experiment: Mitochondria membrane potential difference by TMRM in Daoy cell transfected with empty virus vector (Con shRNA); assay type: cell-based, human; conditions: H2O2 +, CsA −
[2] = system: Daoy cell transfected with virus vector carrying shRNA that could specifically induce the degradation of PPIF mRNA; experiment: Mitochondria membrane potential difference by TMRM in Daoy cell transfected with PPIF shRNA; assay type: cell-based, human; conditions: H2O2 +, CsA −

| IC50 (Con-NCI-H82 cell) [µM] | IC50 (ov-NNMT NCI-H82 cell) [µM] | IC50 (sh-DNMT1 NCI-H82 cell) [µM] | SMILES | IC50 (mPTP-active Daoy cell) [µM] | IC50 (mPTP-inactive Daoy cell) [nM] | Relative TMRM signal intensity (%) in Daoy cell after different treatments, mean value (Daoy cell) [%] | Relative TMRM signal intensity (%), mean value [1] [%] | Relative TMRM signal intensity (%), mean value [2] [%] |
| --- | --- | --- | --- | --- | --- | --- | --- | --- |
| 0.14 | 0.58 | 1.12 | COc1ccc2cc3[n+](cc2c1N1CCC(C)CC1)CCc1cc2c(cc1-3)OCO2 [Compound SJ0001] | 1.35 | 520 |  |  |  |
| 0.32 | 0.88 | 2.03 | COc1ccc2cc3[n+](cc2c1N1CCC(C(F)(F)F)CC1)CCc1cc2c(cc1-3)OCO2 [Compound SJ0002] | 5.13 | 1560 |  |  |  |
| 0.74 | 1.94 | 2.96 | COc1ccc2cc3[n+](cc2c1N1CCC(Cl)CC1)CCc1cc2c(cc1-3)OCO2 [Compound SJ0004] | 7.45 | 2410 |  |  |  |
| 0.18 | 0.55 | 1.33 | COc1ccc2cc3[n+](cc2c1N1CCC(C)CC1)CCc1cc2c(cc1-3)OCCO2 [Compound SJ0009] | 2.06 | 470 |  |  |  |
| 0.45 | 0.89 | 2.54 | COc1ccc2cc3[n+](cc2c1N1CCC(C(F)(F)F)CC1)CCc1cc2c(cc1-3)OCCO2 [Compound SJ0010] | 6.33 | 2090 |  |  |  |
| 0.97 | 2.35 | 3.88 | COc1ccc2cc3[n+](cc2c1N1CCC(Cl)CC1)CCc1cc2c(cc1-3)OCCO2 [Compound SJ0012] | 6.96 | 2080 |  |  |  |

More lines, now with the values behind:

| SMILES | IC50 (Con-NCI-H82 cell) [µM] | IC50 (ov-NNMT NCI-H82 cell) [µM] | IC50 (sh-DNMT1 NCI-H82 cell) [µM] | IC50 (mPTP-active Daoy cell) [µM] | IC50 (mPTP-inactive Daoy cell) [nM] | Relative TMRM signal intensity (%) in Daoy cell after different treatments, mean value (Daoy cell) [%] | Relative TMRM signal intensity (%), mean value [1] [%] | Relative TMRM signal intensity (%), mean value [2] [%] |
| --- | --- | --- | --- | --- | --- | --- | --- | --- |
| COc1ccc2cc3[n+](cc2c1N1CCCCC1C)CCc1cc2c(cc1-3)OCO2 (stereo not drawn) [Compound AB35528] | 0.27 | 0.68 | 1.48 | 1.49 | 420 |  |  |  |
| COc1ccc2cc3[n+](cc2c1N1CCCC(C)C1)CCc1cc2c(cc1-3)OCO2 (stereo not drawn) [Compound AB35530] | 0.32 | 0.72 | 1.76 | 2.43 | 550 |  |  |  |
| COc1ccc2cc3[n+](cc2c1N1CCOC(C)C1)CCc1cc2c(cc1-3)OCO2 (stereo not drawn) [Compound AB35540] | 5.05 | 10.4 | 19 | 15.7 | 5850 |  |  |  |
| COc1ccc2cc3[n+](cc2c1N1CCC(F)CC1)CCc1cc2c(cc1-3)OCO2 [Compound AB35551] | 1.57 | 3.48 | 5.96 | 5.82 | 1970 |  |  |  |
| COc1ccc2cc3[n+](cc2c1N1CCCC1)CCc1cc2c(cc1-3)OCO2 [Compound AB35555] | 0.37 | 1.02 | 2.19 | 1.58 | 450 |  |  |  |
| COc1ccc2cc3[n+](cc2c1N1CCC(F)(F)CC1)CCc1cc2c(cc1-3)OCO2 [Compound AB35556] | 2.57 | 5.85 | 9.86 | 7.31 | 3140 |  |  |  |
| COc1ccc2cc3[n+](cc2c1N1CCC2(CCO2)CC1)CCc1cc2c(cc1-3)OCO2 [Compound AB35575] | 4.07 | 8.96 | 14.8 | 26.7 | 5850 |  |  |  |
| COc1ccc2cc3[n+](cc2c1N1CCCCCC1)CCc1cc2c(cc1-3)OCO2 [Compound AB36413] | 0.29 | 0.85 | 1.58 | 1.26 | 320 |  |  |  |
| COc1ccc2cc3[n+](cc2c1N1CCCCC1)CCc1cc2c(cc1-3)OCO2 [Compound AB36492] | 0.21 | 0.68 | 1.46 | 1.65 | 460 |  |  |  |
| OO [Compound H2O2, H2O2] |  |  |  |  |  | 82 | 79 | 95 |

Reference: patent US20250282774A1, “FUSED RING COMPOUND” (SHANGHAI SHIJIANG BIOTECHNOLOGY CO., LTD., priority 2022, published 2025)
